Measurements published in ChEMBL document CHEMBL1201862, “PubChem BioAssay data set” (2004).
The source made the active and inactive calls.

Key:
[1] = molecular target: Adenosylmethionine-8-amino-7-oxononanoate aminotransferase (Mycobacterium tuberculosis, UniProt P9WQ81); assay: Mycobacterium tuberculosis BioA enzyme inhibitor Measured in Biochemical System Using Plate Reader - 2163-02_Inhibitor_Dose_CherryPick_Activity.; type: functional, Mycobacterium tuberculosis UT205
[2] = molecular target: T1, Low molecular weight phosphotyrosine protein phosphatase (Homo sapiens, UniProt P24666); type: functional; details: read-out: IC50_Mean
T1 sequence (P24666 whole entry): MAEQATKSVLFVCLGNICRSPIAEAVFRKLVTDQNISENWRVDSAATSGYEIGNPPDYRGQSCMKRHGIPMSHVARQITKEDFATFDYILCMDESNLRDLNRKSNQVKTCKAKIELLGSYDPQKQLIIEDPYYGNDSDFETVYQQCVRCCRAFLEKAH

[3] = molecular target: T1, Low molecular weight phosphotyrosine protein phosphatase; type: functional; details: read-out: IC50_Mean; remark: listed apart in the source
[4] = molecular target: Potassium voltage-gated channel subfamily KQT member 2 (Rattus norvegicus, UniProt O88943); assay: KCNQ2 potassium channel inhibitors, dose response, cell-based, automated electrophysiology, set II, rat KCNQ2 (AID 588637); type: functional
[5] = molecular target: G-protein coupled receptor 55 (Homo sapiens, UniProt Q9Y2T6); assay: GPR55 antagonists blocking LPI-driven arrestin recruitment, primary screen, imaging, U2OS, beta-arrestin-GFP, LPI agonist (AID 2013); type: functional;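 further: antagonist potency measured as reduced agonist-driven arrestin aggregation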
Insulin-degrading enzyme [6] = molecular target: T2, Insulin-degrading enzyme (Homo sapiens, UniProt P14735); assay: activators of recombinant IDE enzyme, dose response, counter-screen for IDE activator project, biochemical, fluorescence polarization (AID 588681)
T2 sequence (P14735 whole entry): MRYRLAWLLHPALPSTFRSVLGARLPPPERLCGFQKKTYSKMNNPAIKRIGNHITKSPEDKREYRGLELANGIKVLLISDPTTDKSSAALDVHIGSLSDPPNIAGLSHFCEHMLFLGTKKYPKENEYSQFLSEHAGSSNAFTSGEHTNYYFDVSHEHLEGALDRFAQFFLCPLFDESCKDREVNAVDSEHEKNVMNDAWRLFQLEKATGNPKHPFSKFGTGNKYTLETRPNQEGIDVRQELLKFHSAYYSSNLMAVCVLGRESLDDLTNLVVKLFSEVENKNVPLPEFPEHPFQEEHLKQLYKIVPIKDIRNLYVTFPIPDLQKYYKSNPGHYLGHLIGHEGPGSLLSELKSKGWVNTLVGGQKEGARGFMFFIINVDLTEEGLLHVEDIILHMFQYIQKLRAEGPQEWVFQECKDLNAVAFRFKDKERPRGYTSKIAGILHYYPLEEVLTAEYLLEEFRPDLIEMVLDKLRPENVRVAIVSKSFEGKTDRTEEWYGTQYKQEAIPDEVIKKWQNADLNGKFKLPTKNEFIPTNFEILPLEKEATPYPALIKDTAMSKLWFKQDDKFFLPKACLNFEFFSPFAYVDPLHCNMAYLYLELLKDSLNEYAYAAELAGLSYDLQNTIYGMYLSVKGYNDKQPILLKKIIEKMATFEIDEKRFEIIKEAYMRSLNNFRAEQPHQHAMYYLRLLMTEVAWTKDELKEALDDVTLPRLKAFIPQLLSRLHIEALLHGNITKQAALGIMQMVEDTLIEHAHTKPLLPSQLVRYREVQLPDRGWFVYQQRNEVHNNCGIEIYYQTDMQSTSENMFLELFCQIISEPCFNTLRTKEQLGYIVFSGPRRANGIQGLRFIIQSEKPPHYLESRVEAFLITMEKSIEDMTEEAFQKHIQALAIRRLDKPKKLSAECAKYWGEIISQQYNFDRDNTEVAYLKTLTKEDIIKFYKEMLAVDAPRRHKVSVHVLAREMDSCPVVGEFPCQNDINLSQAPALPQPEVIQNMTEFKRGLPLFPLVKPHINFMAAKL

Nonstructural protein 1 = Nonstructural protein 1 (Influenza A virus, UniProt Q194T2); type: functional, Influenza A virus (A/California/07/2009(H1N1))
Insulin-degrading enzyme [7] = molecular target: T2, Insulin-degrading enzyme; assay: activators of endogenous IDE in HEK cells, dose response, cell-based, fluorescence polarization (AID 588439); type: functional
[8] = molecular target: Ras and Rab interactor 1/Tyrosine-protein kinase ABL1 (Homo sapiens, UniProt P00519+Q13671); type: functional;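 further: biochemical TR-FRET dose-response test measuring inhibition of binding between Rin1 and Abl proteins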
[9] = molecular target: T3, Histone-lysine N-methyltransferase NSD2 (Homo sapiens, UniProt O96028); type: biochemical
T3 sequence (O96028 whole entry): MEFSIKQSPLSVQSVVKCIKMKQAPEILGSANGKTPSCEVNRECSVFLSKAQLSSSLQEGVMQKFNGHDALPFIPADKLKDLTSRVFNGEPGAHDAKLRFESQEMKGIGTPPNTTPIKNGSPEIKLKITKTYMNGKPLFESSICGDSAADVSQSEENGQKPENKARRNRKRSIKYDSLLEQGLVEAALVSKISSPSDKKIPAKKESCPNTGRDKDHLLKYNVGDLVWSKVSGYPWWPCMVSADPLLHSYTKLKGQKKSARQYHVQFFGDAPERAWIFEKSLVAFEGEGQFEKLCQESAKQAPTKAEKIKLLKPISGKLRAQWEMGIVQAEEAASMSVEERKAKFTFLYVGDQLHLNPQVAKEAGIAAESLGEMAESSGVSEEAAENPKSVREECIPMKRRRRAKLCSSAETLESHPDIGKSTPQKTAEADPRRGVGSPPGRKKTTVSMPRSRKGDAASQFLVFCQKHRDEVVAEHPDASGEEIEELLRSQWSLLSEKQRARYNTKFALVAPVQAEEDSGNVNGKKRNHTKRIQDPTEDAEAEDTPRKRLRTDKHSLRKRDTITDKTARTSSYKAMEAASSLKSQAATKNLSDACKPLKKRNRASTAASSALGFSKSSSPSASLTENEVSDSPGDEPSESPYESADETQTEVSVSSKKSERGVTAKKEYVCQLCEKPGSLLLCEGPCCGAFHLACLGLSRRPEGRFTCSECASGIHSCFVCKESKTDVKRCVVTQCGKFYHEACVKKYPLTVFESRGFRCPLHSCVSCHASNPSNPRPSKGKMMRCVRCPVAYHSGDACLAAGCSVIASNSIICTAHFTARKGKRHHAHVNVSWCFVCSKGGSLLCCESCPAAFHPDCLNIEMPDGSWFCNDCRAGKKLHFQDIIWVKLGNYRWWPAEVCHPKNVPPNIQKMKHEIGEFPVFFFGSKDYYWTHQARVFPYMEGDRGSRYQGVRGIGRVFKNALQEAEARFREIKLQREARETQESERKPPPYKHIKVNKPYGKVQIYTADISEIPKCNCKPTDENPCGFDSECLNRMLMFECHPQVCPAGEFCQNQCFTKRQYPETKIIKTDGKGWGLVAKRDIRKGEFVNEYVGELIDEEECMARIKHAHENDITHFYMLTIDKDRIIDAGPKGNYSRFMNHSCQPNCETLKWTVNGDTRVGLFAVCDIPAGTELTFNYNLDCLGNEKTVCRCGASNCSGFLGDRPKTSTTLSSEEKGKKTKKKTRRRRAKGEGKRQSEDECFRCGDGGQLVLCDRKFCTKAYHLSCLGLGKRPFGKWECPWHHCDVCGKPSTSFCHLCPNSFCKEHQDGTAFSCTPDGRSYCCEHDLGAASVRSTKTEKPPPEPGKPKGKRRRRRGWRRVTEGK

[10] = A Cell Based Secondary Assay to Explore Cytotoxicity in THP-1 Cells of Compounds that Modulate Mycobacterium tuberculosis in Media Containing Glycerol versus Media without Glycerol (2).; type: functional
cells [11] = type: functional
INS1 = assay: beta cell apoptosis inhibitors, cytokine rescue, dose response, luminescence, retest (AID 449756); type: functional, cell-based; details: Rattus norvegicus;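 further: cell death triggered by IL-1 beta plus TNF-alpha plus IFN-gamma mixture; protective hits raise ATP signal compared with cytokine alone wells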
cells [12] = assay: cells
[13] = molecular target: T4, DNA repair protein RAD52 homolog (Homo sapiens, UniProt P43351); type: functional, biochemical
T4 sequence (P43351 whole entry): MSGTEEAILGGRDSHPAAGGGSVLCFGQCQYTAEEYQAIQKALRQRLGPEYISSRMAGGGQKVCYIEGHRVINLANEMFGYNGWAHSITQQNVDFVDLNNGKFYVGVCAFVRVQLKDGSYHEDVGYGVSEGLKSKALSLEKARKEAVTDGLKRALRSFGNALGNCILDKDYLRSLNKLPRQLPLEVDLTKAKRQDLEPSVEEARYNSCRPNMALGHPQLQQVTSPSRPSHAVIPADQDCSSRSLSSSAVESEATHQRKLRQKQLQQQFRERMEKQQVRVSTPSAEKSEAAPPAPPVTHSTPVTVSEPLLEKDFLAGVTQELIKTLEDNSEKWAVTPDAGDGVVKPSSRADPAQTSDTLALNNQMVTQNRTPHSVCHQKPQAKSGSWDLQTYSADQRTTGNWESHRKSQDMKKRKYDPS

HEK293 [14] = assay: cells; details: Homo sapiens
[15] = inhibitors of intracellular T. cruzi replication, confirmation, NIH3T3 host cells, beta-gal luminescence (AID 2044); type: functional, cell-based;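 further: intracellular parasites grown in NIH/3T3 mouse fibroblasts as host cells; luminescent beta-galactosidase reporter signal from transgenic T. cruzi replicating inside host cells; inhibitors lower the luminescence signal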
HEK293 [16] = assay: cells; details: Homo sapiens; remark: listed apart in the source
A-375 = assay: A375 melanoma cell viability reduction, dose response, counter-screen for MITF modulator project, cherry-pick samples, set 2 (AID 540335); type: functional, cell-based; details: Homo sapiens
[17] = molecular target: T5, Microphthalmia-associated transcription factor (Homo sapiens, UniProt O75030); assay: TRPM1 promoter luciferase signal decrease, dose response, MITF inhibitor project, cell-based, SK-MEL-5, cherry-picked, set 3 (AID 493073); type: functional
T5 sequence (O75030 whole entry): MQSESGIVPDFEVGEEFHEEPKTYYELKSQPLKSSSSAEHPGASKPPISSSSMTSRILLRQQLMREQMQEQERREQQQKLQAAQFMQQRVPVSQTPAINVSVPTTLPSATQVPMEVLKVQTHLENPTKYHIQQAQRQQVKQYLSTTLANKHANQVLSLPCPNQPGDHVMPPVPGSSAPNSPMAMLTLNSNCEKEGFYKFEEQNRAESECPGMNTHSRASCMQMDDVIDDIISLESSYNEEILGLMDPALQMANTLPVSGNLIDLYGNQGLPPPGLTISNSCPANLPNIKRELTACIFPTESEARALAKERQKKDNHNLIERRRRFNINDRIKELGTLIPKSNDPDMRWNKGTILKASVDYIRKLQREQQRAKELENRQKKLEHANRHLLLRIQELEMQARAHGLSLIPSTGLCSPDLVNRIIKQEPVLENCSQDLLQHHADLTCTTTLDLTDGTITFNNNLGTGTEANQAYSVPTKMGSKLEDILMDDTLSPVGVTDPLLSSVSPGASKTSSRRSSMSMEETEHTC

[18] = molecular target: T6, Oxysterols receptor LXR-beta (Homo sapiens, UniProt P55055); type: functional, cell-based;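 further: Cell-based luminescence dose-response assay of agonist activity at LXR, run as a confirmatory counterscreen to a daf-12 agonist screen; HEK293 cells with Gal4-LXR fusion and GAL4-driven luciferase reporter; agonist potency from rising luciferase signal of a Gal4-LXR reporter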
T6 sequence (P55055 whole entry): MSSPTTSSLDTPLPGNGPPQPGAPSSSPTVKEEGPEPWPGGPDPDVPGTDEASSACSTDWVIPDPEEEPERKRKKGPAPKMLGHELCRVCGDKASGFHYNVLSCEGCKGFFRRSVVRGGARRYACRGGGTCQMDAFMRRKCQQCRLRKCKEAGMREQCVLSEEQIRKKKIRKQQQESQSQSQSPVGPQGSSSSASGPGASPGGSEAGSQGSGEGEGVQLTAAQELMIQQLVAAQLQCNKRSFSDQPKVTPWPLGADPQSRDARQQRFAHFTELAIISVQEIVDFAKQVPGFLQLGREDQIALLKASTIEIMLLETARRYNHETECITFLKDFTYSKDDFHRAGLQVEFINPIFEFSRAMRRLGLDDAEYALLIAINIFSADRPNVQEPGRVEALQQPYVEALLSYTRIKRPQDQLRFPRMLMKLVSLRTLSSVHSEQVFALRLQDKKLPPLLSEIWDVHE

[19] = molecular target: 26S proteasome non-ATPase regulatory subunit 14 (Homo sapiens, UniProt O00487); assay: inhibition of proteasome subunit RPN11 – biochemical, fluorescence polarization, uHTS hits, confirmation (AID 602368); type: functional
Prothrombin = Prothrombin (Bos taurus, UniProt P00735); assay: thrombin inhibition, dose response, biochemical, fluorescence polarization, uHTS hits (AID 602369); type: functional
[20] = molecular target: 72 kDa type IV collagenase (Homo sapiens, UniProt P08253); assay: Dose Response validation of uHTS RPN11 inhibitor hits using a MMP-2 Fluorescence assay.; type: functional
[21] = molecular target: DNA (cytosine-5)-methyltransferase 1 (Homo sapiens, UniProt P26358); assay: DNMT1 methyltransferase inhibitors, confirmation, biochemical, fluorescent molecular beacon (AID 602386); type: functional
Sequence of DNA (cytosine-5)-methyltransferase 1 (P26358 whole entry): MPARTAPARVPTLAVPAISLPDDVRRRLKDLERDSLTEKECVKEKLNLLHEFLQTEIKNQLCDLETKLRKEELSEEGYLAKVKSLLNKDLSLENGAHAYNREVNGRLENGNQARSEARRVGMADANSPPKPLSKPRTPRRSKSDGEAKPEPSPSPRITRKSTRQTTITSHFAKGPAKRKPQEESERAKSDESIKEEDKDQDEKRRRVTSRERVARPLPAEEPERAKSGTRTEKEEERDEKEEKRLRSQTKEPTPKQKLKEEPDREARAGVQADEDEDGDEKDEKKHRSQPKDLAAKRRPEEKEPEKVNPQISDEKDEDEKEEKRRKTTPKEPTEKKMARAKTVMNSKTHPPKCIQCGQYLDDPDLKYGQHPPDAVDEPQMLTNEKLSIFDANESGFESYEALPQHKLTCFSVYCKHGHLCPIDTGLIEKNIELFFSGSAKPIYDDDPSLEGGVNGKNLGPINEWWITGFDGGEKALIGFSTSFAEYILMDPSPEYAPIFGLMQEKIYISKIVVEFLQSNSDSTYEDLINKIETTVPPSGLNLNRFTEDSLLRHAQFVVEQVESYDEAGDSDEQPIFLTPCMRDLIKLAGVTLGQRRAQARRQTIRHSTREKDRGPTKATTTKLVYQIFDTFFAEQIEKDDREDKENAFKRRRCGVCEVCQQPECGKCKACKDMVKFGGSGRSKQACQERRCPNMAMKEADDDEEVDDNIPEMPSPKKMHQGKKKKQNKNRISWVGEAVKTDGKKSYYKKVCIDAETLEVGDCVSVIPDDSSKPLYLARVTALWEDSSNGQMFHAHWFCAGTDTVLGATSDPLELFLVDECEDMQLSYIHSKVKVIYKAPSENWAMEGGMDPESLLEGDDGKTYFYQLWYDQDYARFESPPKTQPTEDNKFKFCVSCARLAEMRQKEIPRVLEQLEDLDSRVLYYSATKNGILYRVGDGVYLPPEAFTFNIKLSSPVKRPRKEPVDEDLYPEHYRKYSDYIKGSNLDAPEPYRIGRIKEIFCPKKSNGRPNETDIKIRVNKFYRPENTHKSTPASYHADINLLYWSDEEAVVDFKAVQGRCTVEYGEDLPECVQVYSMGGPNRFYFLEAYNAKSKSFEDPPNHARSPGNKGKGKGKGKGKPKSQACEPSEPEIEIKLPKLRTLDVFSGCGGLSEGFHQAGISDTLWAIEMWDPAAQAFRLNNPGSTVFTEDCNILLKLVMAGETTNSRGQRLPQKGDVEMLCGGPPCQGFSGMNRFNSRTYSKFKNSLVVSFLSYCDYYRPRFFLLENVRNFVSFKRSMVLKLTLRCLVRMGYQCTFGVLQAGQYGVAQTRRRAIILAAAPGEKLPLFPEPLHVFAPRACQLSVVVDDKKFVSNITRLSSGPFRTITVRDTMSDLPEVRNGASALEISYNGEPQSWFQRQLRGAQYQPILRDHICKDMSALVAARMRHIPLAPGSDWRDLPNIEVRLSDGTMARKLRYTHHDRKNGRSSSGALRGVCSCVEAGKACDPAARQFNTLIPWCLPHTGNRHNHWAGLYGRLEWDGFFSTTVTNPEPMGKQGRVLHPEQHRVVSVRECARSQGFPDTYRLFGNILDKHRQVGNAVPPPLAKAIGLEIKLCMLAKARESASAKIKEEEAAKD

Sequence of Nonstructural protein 1 (Q194T2 whole entry): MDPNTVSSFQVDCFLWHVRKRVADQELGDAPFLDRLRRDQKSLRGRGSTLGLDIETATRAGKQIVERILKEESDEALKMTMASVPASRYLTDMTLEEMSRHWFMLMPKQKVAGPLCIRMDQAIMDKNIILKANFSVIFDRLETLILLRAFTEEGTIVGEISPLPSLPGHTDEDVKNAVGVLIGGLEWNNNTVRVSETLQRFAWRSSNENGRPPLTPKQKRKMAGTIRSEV
Sequence of Potassium voltage-gated channel subfamily KQT member 2 (O88943 whole entry): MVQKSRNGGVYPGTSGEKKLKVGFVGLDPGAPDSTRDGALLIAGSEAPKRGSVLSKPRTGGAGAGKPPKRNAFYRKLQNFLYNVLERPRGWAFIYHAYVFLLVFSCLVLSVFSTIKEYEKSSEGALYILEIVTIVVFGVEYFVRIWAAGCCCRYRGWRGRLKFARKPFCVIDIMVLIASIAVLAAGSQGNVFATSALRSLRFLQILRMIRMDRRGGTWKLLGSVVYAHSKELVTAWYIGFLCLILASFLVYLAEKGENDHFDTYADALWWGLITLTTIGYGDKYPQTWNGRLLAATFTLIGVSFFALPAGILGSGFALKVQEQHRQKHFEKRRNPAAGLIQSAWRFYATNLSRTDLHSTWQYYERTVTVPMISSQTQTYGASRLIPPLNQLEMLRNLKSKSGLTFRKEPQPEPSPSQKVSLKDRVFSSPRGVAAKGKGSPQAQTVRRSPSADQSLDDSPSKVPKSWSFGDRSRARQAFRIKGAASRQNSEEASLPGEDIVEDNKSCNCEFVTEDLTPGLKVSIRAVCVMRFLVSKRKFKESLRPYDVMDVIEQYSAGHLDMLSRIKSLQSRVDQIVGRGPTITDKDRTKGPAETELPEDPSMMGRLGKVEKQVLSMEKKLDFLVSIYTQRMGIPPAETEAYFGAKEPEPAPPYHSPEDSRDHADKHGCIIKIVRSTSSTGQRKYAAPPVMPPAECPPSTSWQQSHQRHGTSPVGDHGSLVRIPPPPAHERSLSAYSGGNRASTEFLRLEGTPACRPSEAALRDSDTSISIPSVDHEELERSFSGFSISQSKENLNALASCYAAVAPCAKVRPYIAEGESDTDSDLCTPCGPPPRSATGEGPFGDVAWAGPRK
Sequence of Adenosylmethionine-8-amino-7-oxononanoate aminotransferase (P9WQ81 whole entry): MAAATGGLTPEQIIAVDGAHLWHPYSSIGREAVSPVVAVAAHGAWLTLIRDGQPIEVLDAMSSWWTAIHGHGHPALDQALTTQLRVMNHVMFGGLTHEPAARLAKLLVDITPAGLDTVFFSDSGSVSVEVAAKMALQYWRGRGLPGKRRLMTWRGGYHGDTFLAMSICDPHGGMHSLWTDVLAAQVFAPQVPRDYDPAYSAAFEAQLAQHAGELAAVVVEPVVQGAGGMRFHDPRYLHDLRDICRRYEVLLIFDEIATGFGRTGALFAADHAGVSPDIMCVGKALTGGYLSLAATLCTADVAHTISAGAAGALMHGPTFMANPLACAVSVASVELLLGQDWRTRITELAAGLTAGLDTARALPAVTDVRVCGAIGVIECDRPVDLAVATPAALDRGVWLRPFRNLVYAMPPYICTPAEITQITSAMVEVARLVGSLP
Sequence of 26S proteasome non-ATPase regulatory subunit 14 (O00487 whole entry): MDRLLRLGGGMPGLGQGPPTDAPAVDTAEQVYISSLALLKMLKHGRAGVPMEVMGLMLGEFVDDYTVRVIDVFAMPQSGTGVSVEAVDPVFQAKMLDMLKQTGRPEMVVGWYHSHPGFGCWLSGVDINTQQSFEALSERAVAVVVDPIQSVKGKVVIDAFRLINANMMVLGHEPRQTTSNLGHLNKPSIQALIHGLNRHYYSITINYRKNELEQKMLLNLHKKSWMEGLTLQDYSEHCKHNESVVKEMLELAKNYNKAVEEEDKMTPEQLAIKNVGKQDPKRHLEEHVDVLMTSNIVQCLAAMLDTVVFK
Sequence of 72 kDa type IV collagenase (P08253 whole entry): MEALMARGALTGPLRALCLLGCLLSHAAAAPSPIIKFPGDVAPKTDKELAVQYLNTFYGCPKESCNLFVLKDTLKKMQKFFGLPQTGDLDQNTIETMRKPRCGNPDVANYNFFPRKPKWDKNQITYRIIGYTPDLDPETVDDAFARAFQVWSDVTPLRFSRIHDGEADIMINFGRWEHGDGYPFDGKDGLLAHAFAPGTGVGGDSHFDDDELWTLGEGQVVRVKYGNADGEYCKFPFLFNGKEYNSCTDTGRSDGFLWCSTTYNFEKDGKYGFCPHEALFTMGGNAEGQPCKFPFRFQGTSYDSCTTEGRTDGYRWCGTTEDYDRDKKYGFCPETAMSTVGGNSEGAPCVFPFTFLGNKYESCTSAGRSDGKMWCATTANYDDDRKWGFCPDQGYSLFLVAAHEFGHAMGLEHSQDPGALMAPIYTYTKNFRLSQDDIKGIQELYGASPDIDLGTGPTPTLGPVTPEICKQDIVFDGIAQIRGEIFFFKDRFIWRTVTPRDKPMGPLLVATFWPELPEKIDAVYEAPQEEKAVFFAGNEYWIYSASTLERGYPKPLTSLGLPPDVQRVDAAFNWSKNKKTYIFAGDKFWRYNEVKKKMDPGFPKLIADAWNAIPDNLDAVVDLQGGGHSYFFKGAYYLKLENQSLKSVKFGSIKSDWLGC
Sequence of G-protein coupled receptor 55 (Q9Y2T6 whole entry): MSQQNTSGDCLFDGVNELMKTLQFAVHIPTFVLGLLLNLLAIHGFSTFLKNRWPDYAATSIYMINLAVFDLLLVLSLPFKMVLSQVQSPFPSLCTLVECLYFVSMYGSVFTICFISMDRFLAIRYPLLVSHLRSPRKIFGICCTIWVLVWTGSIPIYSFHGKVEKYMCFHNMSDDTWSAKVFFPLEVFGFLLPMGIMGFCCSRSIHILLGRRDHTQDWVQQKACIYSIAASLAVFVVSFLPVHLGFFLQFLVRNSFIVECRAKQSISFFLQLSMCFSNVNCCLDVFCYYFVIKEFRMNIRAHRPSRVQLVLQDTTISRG

CCCC(=O)Nc1cccc(NC(=O)c2ccc(C)c([N+](=O)[O-])c2)c1
AC50 [1]: 1.96 µM (active)

Oc1c(/C=N/c2ccc(Cl)cc2)cnn1-c1cccc(Cl)n1
IC50 [2]: 17.1 µM (active)
IC50 [3]: 15.4 µM (active)

COc1ccc(Cl)cc1C(=O)NC(=S)Nc1ccccc1N1CCOCC1
IC50 [4]: 5.98 µM (active)
IC50 [5]: 0.825 µM (active)

Cc1[nH]c(=O)[nH]c1C(=O)CCCCC(=O)O
EC50 (Insulin-degrading enzyme [6]): 16.9 µM (inactive)
IC50 (Nonstructural protein 1): 2.14 µM (active)
EC50 (Insulin-degrading enzyme [7]): 12.2 µM (inactive)
IC50 [8]: 0.0174 µM (active)
AC50 [9]: 10.2 µM (active)

CCOC(=O)COn1c2c(c3c4no[n+]([O-])c4ccc31)CCCC2
CC50 [10]: > 100 µM (active)
IC50 (cells [11]): 5.49 µM (active)

Cc1cc(C)c2c(N)c3cccc(C)c3nc2n1
AC50 (INS1): 1.62 µM (active)
EC50 (cells [12]): > 67.5 µM (inactive)
AC50 [13]: 2.24 µM (active)
EC50 (HEK293 [14]): > 2.21 µM (active)
EC50 [15]: 1.27 µM (active)
EC50 (HEK293 [16]): > 59.6 µM (inactive)
AC50 (A-375): 3.39 µM (active)
AC50 [17]: 3.21 µM (active)
EC50 [18]: > 67.5 µM (inactive)
IC50 [19]: 13.1 µM (active)
IC50 (Prothrombin): > 100 µM (inactive)
IC50 [20]: > 100 µM (inactive)
IC50 [21]: > 99 µM (inactive)
